Assay results from patent US11345702B1 (Myoforte Therapeutics, Inc., priority 2020, dated 2022).

Legend:
[1] = Liver microsome stability assay (MLM); type: in vitro ADME; conditions: mouse liver microsomes
Description: A microsomal mixture (microsomes and Kphos buffer) was prepared at a concentration of 1.428 mg/mL in 2 mL tubes. To this microsomal mixture 1.6 μL (1 mM) of test compound and positive control were spiked; from this mixture, 70 μL was transferred to 96 well plate and pre-incubated at 37° C. for 5 min. After pre-incubation, the zero minute time point reaction was stopped using 100 μL of ice-cold acetonitrile containing internal standard and […] (3.33 mM in Kphos buffer) was added. The 45 minute time point reaction was initiated by addition of 30 μL of NADPH (3.33 mM in Kphos buffer) and incubated at 37° C. for 15 and 45 min. Reactions without NADPH and buffer controls (minus NADPH) at 0, 15, and 45 minutes were also incubated to rule out non-NADPH metabolism or chemical instability in the incubation buffer. Incubation reactions were stopped with 100 μL of ice-cold acetonitrile containing internal standard. The plates were centrifuged at 4000 RPM for 15 min and 100 μL aliquots were submitted for analysis by LC-MS/MS. (Verapamil in human liver microsomes (HLM) and rat liver microsomes (RLM) was used as positive controls. Imipramine in mouse liver microsomes (MLM) was used as a positive control.) Samples were monitored for parent compound disappearance in MRM mode (multiple reaction monitoring) using LC-MS/MS. The peak area ratios of analyte versus internal standard were used to calculate the % remaining at the end of 45 minutes in the presence of NADPH.

[2] = molecular target: 15-PGDH/HPGD (Homo sapiens (Human), UniProt P15428); assay: hPGDH inhibitor screening biochemical assay; conditions: read-out: hPGDH: Average IC50
Outline: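 Recombinant human 15-PGDH (10 nM) pre-incubated with compounds 10 min at 37 °C, then 15 μM PGE2 and 0.25 mM NAD+ added for 10 min at room temperature in 50 mM Tris-HCl pH 7.5, 0.01% Tween 20. NADH fluorescence read at ex/em 340/485 nm. IC50 from 10-point curves, four-parameter fit versus 1% DMSO.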

15-PGDH/HPGD, sequence (P15428 whole entry): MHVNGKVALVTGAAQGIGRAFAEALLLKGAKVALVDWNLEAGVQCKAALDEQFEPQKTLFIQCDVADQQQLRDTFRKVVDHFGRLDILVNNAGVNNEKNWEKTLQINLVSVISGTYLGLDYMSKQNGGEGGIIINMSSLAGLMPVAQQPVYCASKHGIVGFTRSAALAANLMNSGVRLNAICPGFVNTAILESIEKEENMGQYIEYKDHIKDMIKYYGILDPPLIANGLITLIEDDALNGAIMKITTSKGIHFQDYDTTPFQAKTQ

Row | MLM + NADPH (% remaining at 45 min) [1] [%] | IC50 [2] [µM] | Structure (SMILES)
1 | 87 | < 0.1 | CC1(C)NC(=O)N(c2ccc(-n3ccc4cc(C(=O)N5CCC(F)(F)CC5)cnc43)cn2)C1=O [MF-DH-457]
2 | 31 | < 0.1 | O=C(Nc1ccno1)c1cncc(-n2ccc3cc(C(=O)N4CCC(F)(F)CC4)cnc32)c1 [MF-DH-459, 5-(5-(4,4-difluoropiperidine-1-carbonyl)-1H-pyrrolo[2,3-b]pyridin-1-yl)-N-(isoxazol-5-yl)nicotinamide]
3 | 100 | < 0.1 | NC(=O)c1ccc(-n2cnc3cc(C(=O)N4CCC(F)(F)CC4)cnc32)cc1 [MF-DH-464]
4 | 90 | 0.1 to 1 | NCCNC(=O)c1cccc(-n2ccc3cc(C(=O)N4CCC(F)(F)CC4)cnc32)c1 [MF-DH-467, N-(2-aminoethyl)-3-(5-(4,4-difluoropiperidine-1-carbonyl)-1H-pyrrolo[2,3-b]pyridin-1-yl)benzamide]
5 | – | < 0.1 | Cn1cc(-n2ccc3cc(C(=O)N4CCCCC4)cnc32)cn1 [MF-PGDH-076]
6 | – | 0.1 to 1 | COc1ccccc1C(=O)Nc1ccc(C(=O)N2CCC(F)(F)CC2)cc1 [MF-PGDH-087]
7 | – | 0.1 to 1 | O=C(Nc1ccc(C(=O)N2CCCCC2)cc1)c1ccccc1Cl [MF-PGDH-088]
8 | – | 0.1 to 1 | COc1cccc(C(=O)Nc2ccc(C(=O)N3CCCCC3)cc2)c1 [MF-PGDH-089]
9 | – | ≥ 1 | O=C1CCN(C(=O)c2ccc3c(c2)ncn3-c2cccc(Cl)c2)C1 [MF-PGDH-090, 1-(1-(3-chlorophenyl)-1H-benzo[d]imidazole-5-carbonyl)pyrrolidin-3-one]
10 | – | < 0.1 | Cc1nc2cc(C(=O)N3CCCCC3)ccc2n1-c1cccc(Cl)c1 [MF-PGDH-091]
11 | – | < 0.1 | O=C(c1ccc(COc2ccccc2-c2ccccn2)cc1)N1CCCCC1 [MF-PGDH-095]
12 | – | < 0.1 | O=C(c1ccc(COc2ccccc2-c2cnc[nH]2)cc1)N1CCCCC1 [MF-PGDH-096]
13 | – | < 0.1 | O=C(c1ccc(COc2ccccc2-c2cncs2)cc1)N1CCCCC1 [MF-PGDH-097]
14 | – | 0.1 to 1 | O=C(c1ccc2c(c1)ncn2-c1cccc(Cl)c1)N1CCC1 [MF-PGDH-104]
15 | – | 0.1 to 1 | CC1(C)CN(C(=O)c2ccc3c(c2)ncn3-c2cccc(Cl)c2)C1 [MF-PGDH-105]
16 | – | < 0.1 | O=C(c1ccc2c(c1)ncn2-c1cccc(Cl)c1)N1CC(F)C1 [MF-PGDH-106]
17 | – | < 0.1 | O=C(c1ccc2c(c1)ncn2-c1cccc(Cl)c1)N1CC(Cl)C1 [MF-PGDH-107]

More lines, now with the values behind:

Row | Structure (SMILES) | MLM + NADPH (% remaining at 45 min) [1] [%] | IC50 [2] [µM]
18 | O=C(NC1CCS(=O)(=O)CC1)c1cc(Cl)cc(-n2ccc3cc(C(=O)N4CCC(F)(F)CC4)cnc32)c1 | 81 | < 0.1
19 | O=C(c1cnc2c(ccn2-c2cc(Cl)cc(C(=O)N3CCS(=O)(=O)CC3)c2)c1)N1CCC(F)(F)CC1 | 37 | < 0.1
20 | NC(=O)c1ccc(-n2ccc3cc(C(=O)N4CCCCC4)cnc32)cn1 [MF-DH-365] | 41 | < 0.1
21 | NC(=O)c1ccc(-n2cc(Cl)c3cc(C(=O)N4CCC(F)CC4)cnc32)cc1 [MF-DH-382, 4-(3-chloro-5-(4-fluoropiperidine-1-carbonyl)-1H-pyrrolo[2,3-b]pyridin-1-yl)benzamide] | 26 | < 0.1
22 | NC(=O)c1ccc(-n2cc(Cl)c3cc(C(=O)N4CCCCC4)cnc32)cc1 [MF-DH-383, 4-(3-chloro-5-(piperidine-1-carbonyl)-1H-pyrrolo[2,3-b]pyridin-1-yl)benzamide] | 12 | < 0.1
23 | Cc1c(C(=O)N2CCC(F)CC2)cnc2c1ccn2-c1ccc(C#N)cc1 [MF-DH-387, 4-(5-(4-fluoropiperidine-1-carbonyl)-4-methyl-1H-pyrrolo[2,3-b]pyridin-1-yl)benzonitrile] | 72 | < 0.1
24 | O=C(c1cnc2c(ccn2-c2ccc3[nH]ncc3c2)c1)N1CCC(F)(F)CC1 [MF-DH-396] | 4 | < 0.1
25 | N/C(=N\O)c1ccc(-n2ccc3cc(C(=O)N4CCCCC4)cnc32)cc1 [MF-DH-399] | 6 | < 0.1
26 | N/C(=N\O)c1cccc(-n2ccc3cc(C(=O)N4CCCCC4)cnc32)c1 [MF-DH-400] | 0 | < 0.1
27 | CC(C)(C)C(=O)NCCNC(=O)c1ccc(-n2ccc3cc(C(=O)N4CCC(F)(F)CC4)cnc32)cc1 [MF-DH-403, 4-(5-(4,4-difluoropiperidine-1-carbonyl)-1H-pyrrolo[2,3-b]pyridin-1-yl)-N-(2-pivalamidoethyl)benzamide] | 45 | < 0.1
28 | CC(C)(C)CNC(=O)c1cncc(-n2ccc3cc(C(=O)N4CCC(F)(F)CC4)cnc32)c1 [MF-DH-405, 5-(5-(4,4-difluoropiperidine-1-carbonyl)-1H-pyrrolo[2,3-b]pyridin-1-yl)-N-neopentylnicotinamide] | 86 | < 0.1
29 | CC(C)(C)NC(=O)c1ccc(-n2ccc3cc(C(=O)N4CCC(F)(F)CC4)cnc32)cn1 [MF-DH-406, N-(tert-butyl)-5-(5-(4,4-difluoropiperidine-1-carbonyl)-1H-pyrrolo[2,3-b]pyridin-1-yl)picolinamide] | 66 | < 0.1
30 | CCC(CC)NC(=O)c1cncc(-n2ccc3cc(C(=O)N4CCC(F)(F)CC4)cnc32)c1 [MF-DH-407, 5-(5-(4,4-difluoropiperidine-1-carbonyl)-1H-pyrrolo[2,3-b]pyridin-1-yl)-N-(pentan-3-yl)nicotinamide] | 51 | < 0.1
31 | CS(=O)(=O)NCCNC(=O)c1ccc(-n2ccc3cc(C(=O)N4CCC(F)(F)CC4)cnc32)cc1 [MF-DH-409, 4-(5-(4,4-difluoropiperidine-1-carbonyl)-1H-pyrrolo[2,3-b]pyridin-1-yl)-N-(2-(methylsulfonamido)ethyl)benzamide] | 78 | < 0.1
32 | NCCNC(=O)c1ccc(-n2ccc3cc(C(=O)N4CCC(F)(F)CC4)cnc32)cc1 [MF-DH-411, N-(2-aminoethyl)-4-(5-(4,4-difluoropiperidine-1-carbonyl)-1H-pyrrolo[2,3-b]pyridin-1-yl)benzamide] | 87 | < 0.1
33 | O=C(NC(CO)CO)c1ccc(-n2ccc3cc(C(=O)N4CCC(F)(F)CC4)cnc32)cc1 [MF-DH-412] | 97 | < 0.1
34 | O=C(NCCO)c1ccc(-n2ccc3cc(C(=O)N4CCC(F)(F)CC4)cnc32)cc1 [MF-DH-413] | 94 | < 0.1
35 | CS(=O)(=O)NC(=O)c1ccc(-n2ccc3cc(C(=O)N4CCC(F)(F)CC4)cnc32)cc1 [MF-DH-428, 4-(5-(4,4-difluoropiperidine-1-carbonyl)-1H-pyrrolo[2,3-b]pyridin-1-yl)-N-(methylsulfonyl)benzamide] | 97 | < 0.1
36 | O=C(NC1(C(=O)O)CC1)c1ccc(-n2ccc3cc(C(=O)N4CCC(F)(F)CC4)cnc32)cc1 [MF-DH-429] | 97 | < 0.1
37 | O=C(O)c1ccc(-n2ccc3cc(C(=O)N4CCC(F)(F)CC4)cnc32)cn1 [MF-DH-434, 5-(5-(4,4-difluoropiperidine-1-carbonyl)-1H-pyrrolo[2,3-b]pyridin-1-yl)picolinic acid] | 94 | < 0.1
38 | CCC(CC)NC(=O)c1ccc(-n2ccc3cc(C(=O)N4CCC(F)(F)CC4)cnc32)cn1 [MF-DH-437, 5-(5-(4,4-difluoropiperidine-1-carbonyl)-1H-pyrrolo[2,3-b]pyridin-1-yl)-N-(pentan-3-yl) picolinamide] | 25 | < 0.1
39 | CC(C)(C)CNC(=O)c1ccc(-n2ccc3cc(C(=O)N4CCC(F)(F)CC4)cnc32)cn1 [MF-DH-438, 5-(5-(4,4-difluoropiperidine-1-carbonyl)-1H-pyrrolo[2,3-b]pyridin-1-yl)-N-neopentylpicolinamide] | 63 | < 0.1
40 | CC(C)(C)NC(=O)c1cncc(-n2ccc3cc(C(=O)N4CCC(F)(F)CC4)cnc32)c1 [MF-DH-448, N-(tert-butyl)-5-(5-(4,4-difluoropiperidine-1-carbonyl)-1H-pyrrolo[2,3-b]pyridin-1-yl)nicotinamide] | 79 | < 0.1
41 | O=C(c1cnc2c(ccn2-c2ccc(-c3nnn[nH]3)nc2)c1)N1CCC(F)(F)CC1 [MF-DH-452, (1-(6-(1H-tetrazol-5-yl)pyridin-3-yl)-1H-pyrrolo[2,3-b]pyridin-5-yl)(4,4-difluoropiperidin-1-yl)methanone] | 90 | < 0.1
